Kd and IC50 data for 19 molecules are collected here from ChEMBL document CHEMBL6071142, “Isoalantolactone/hydroxamic acid hybrids as potent dual STAT3/HDAC inhibitors and self-assembled nanoparticles for cancer therapy” (Eur J Med Chem, 2024).

For assay [1], the target named is Signal transducer and activator of transcription 3 (Homo sapiens, UniProt P40763). Description: Binding affinity to STAT3 (unknown origin) assessed as dissociation constant by SPR assay.
The target in the next assay is Histone deacetylase 2 (Homo sapiens, UniProt Q92769). Nature of the assay: Inhibition of recombinant human HDAC2 using Boc-Lys (acetyl)-AMC as substrate preincubated with compound for 1 hr followed by substrate addition and measured after 30 mins by microplate reader assay.
The test system of another assay is A549. Nature of the assay: cells. To be noted: Homo sapiens, A549, 72 h. It is filed as functional, cell-based.
The next assay addresses Histone deacetylase 1 (Homo sapiens, UniProt Q13547). Nature of the assay: Inhibition of recombinant human HDAC1 using Boc-Lys (acetyl)-AMC as substrate preincubated with compound for 1 hr followed by substrate addition and measured after 30 mins by microplate reader assay.
For a further assay, the target named is Histone deacetylase 3 (Homo sapiens, UniProt O15379). Nature of the assay: Inhibition of recombinant human HDAC3 using Boc-Lys (acetyl)-AMC as substrate preincubated with compound for 1 hr followed by substrate addition and measured after 30 mins by microplate reader assay.
In assay [2] the target is T1, Protein deacetylase HDAC6 (Homo sapiens, UniProt Q9UBN7).
T1 sequence (Q9UBN7 whole entry): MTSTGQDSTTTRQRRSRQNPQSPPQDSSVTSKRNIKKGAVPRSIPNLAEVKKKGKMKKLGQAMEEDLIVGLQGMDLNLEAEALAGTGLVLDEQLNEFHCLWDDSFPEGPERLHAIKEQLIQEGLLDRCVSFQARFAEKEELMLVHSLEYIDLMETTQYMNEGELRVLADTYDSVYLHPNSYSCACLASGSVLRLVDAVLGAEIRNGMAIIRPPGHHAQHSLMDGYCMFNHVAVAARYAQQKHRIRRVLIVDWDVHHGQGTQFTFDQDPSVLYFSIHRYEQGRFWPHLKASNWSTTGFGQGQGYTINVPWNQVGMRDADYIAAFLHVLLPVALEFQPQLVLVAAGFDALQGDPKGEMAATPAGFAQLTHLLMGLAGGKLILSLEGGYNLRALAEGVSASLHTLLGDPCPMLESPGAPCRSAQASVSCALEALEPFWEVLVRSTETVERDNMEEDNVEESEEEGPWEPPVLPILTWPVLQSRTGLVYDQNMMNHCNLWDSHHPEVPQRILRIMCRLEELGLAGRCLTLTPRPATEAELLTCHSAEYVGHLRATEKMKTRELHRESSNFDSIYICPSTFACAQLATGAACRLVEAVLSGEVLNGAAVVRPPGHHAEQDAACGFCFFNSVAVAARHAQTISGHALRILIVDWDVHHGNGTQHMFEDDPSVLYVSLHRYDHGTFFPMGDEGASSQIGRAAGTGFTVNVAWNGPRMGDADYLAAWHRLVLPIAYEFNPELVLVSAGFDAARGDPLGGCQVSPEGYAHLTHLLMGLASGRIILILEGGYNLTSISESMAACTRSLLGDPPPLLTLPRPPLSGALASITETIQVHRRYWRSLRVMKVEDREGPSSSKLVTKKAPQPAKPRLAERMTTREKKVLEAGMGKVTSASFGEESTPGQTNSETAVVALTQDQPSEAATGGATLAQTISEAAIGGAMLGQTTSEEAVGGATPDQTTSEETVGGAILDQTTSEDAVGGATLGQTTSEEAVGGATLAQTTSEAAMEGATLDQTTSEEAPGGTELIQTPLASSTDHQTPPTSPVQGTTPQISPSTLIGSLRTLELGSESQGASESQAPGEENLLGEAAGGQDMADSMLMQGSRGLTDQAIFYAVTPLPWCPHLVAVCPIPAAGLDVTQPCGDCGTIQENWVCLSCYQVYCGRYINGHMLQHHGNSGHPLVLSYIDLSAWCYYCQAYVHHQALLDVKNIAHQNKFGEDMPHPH
Description: Inhibition of recombinant human HDAC6 using Boc-Lys (acetyl)-AMC as substrate preincubated with compound for 1 hr followed by substrate addition and measured after 30 mins by microplate reader assay.

The structures appear in SMILES notation. pIC50, pKd: −log10 of the molar value. Where only a bound is given, the exact number is not on record here.

Signal transducer and activator of transcription 3, sequence (P40763 whole entry): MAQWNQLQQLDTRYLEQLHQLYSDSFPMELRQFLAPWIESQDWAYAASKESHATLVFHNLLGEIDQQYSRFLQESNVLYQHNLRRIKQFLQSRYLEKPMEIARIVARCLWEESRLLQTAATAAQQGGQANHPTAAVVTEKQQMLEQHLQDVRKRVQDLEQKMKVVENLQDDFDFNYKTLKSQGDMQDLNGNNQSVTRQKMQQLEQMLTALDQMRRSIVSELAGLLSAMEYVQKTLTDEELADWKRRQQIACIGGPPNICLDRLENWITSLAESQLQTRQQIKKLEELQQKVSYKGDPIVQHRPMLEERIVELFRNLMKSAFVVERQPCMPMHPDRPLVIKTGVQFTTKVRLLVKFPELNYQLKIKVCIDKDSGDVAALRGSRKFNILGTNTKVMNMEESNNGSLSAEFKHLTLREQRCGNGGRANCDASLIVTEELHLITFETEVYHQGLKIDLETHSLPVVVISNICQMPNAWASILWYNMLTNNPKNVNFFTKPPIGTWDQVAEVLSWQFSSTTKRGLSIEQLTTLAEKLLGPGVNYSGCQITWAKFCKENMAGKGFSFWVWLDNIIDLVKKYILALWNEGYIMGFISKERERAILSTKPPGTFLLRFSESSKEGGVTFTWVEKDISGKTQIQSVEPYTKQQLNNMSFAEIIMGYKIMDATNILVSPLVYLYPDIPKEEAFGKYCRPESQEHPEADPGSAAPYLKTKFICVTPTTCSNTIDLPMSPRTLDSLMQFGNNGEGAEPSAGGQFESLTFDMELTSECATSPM
Histone deacetylase 3, sequence (O15379 whole entry): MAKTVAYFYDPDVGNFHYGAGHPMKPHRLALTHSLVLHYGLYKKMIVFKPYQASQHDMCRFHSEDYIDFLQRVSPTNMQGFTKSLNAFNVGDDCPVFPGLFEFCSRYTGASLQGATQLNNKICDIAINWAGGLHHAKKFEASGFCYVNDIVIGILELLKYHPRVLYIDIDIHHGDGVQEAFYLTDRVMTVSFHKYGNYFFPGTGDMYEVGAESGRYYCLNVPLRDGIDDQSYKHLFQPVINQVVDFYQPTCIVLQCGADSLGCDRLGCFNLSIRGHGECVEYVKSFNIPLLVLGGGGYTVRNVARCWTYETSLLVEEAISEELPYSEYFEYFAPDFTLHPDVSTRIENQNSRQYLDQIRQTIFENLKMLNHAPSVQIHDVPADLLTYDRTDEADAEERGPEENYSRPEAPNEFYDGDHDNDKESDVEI
Histone deacetylase 1, sequence (Q13547 whole entry): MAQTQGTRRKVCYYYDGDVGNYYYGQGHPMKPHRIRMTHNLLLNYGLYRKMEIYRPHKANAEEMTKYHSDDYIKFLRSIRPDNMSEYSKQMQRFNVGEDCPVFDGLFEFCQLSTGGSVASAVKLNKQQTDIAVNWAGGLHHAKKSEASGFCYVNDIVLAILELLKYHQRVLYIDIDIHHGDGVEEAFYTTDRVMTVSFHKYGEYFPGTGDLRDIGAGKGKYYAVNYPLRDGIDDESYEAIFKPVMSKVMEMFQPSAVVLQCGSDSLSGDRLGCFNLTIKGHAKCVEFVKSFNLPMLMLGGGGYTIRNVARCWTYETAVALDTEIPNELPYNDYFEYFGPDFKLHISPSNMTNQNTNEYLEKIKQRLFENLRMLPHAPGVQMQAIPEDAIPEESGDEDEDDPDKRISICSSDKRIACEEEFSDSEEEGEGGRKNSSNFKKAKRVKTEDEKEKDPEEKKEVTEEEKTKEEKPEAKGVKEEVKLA
Histone deacetylase 2, sequence (Q92769 whole entry): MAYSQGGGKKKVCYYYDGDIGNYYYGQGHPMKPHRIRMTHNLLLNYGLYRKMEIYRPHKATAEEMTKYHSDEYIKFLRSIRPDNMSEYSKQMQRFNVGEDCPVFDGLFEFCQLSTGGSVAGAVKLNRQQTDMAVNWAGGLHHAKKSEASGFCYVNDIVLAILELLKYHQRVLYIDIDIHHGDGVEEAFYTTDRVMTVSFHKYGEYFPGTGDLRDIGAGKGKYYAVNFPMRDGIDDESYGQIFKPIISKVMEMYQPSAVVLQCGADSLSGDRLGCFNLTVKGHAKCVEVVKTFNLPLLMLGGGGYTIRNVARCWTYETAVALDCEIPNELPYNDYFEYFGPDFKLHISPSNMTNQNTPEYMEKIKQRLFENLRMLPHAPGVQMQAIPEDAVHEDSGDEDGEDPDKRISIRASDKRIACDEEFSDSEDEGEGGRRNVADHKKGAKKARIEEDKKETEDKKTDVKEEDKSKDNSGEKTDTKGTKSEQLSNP
Description for A549: Antiproliferative activity against human A549 cells assessed as inhibition of cell proliferation incubated for 72 hrs by CCK-8 assay

With `Nc1ccc(F)cc1NC(=O)c1ccc(CNC(=O)/C=C/c2cccnc2)cc1`, the pKd in assay [1] was less than 4.30. The pIC50 on Histone deacetylase 2 was 6.67; in the assay on A549, 5.19.

As for `C=C1C(=O)O[C@@H]2C[C@@]3(C)CC[C@@H](OC(=O)[C@@H](C)NC(=O)c4ccc(C(=O)NO)cc4)C(=C)[C@@H]3C[C@H]12`, in assay [1], the pKd was 4.70. For the same molecule, the pIC50 is 6.13 on Histone deacetylase 1; less than 6.00 on Histone deacetylase 3; 6.79 in assay [2]; less than 6.00 at Histone deacetylase 2; less than 5.00 with A549.

Regarding `C=C1C(=O)O[C@@H]2C[C@@]3(C)CC[C@@H](OC(=O)[C@H](CC(C)C)NC(=O)c4ccc(C(=O)Nc5ccccc5N)cc4)C(=C)[C@@H]3C[C@H]12`, the negative-log Kd (pKd) in assay [1] was less than 4.30. In addition, the pIC50 at Histone deacetylase 1 is less than 6.00; at Histone deacetylase 3, less than 6.00; in assay [2] it was less than 6.00; at Histone deacetylase 2 it was less than 6.00; in the assay with A549, less than 5.00.

Consider `C=C1C(=O)O[C@@H]2C[C@@]3(C)CC[C@@H](OC(=O)[C@@H](C)NC(=O)c4ccc(/C=C/C(=O)NO)cc4)C(=C)[C@@H]3C[C@H]12`, for which the pKd in assay [1] is 5.41. Besides, the pIC50 is 6.71 on Histone deacetylase 1; 6.57 at Histone deacetylase 3; 7.19 in assay [2]; 6.47 at Histone deacetylase 2; 5.34 in the assay on A549.

In the case of `C=C1C(=O)O[C@@H]2C[C@@]3(C)CC[C@@H](OC(=O)[C@H](Cc4ccccc4)NC(=O)c4ccc(C(=O)Nc5ccccc5N)cc4)C(=C)[C@@H]3C[C@H]12`, in assay [1], the pKd is less than 4.30. Further, the pIC50 at Histone deacetylase 1 was less than 6.00; at Histone deacetylase 3, less than 6.00; in assay [2], less than 6.00; on Histone deacetylase 2 it was less than 6.00; in the assay on A549, less than 5.00.

As to `C=C1C(=O)O[C@@H]2C[C@@]3(C)CC[C@@H](OC(=O)[C@H](C)NC(=O)c4cccc(/C=C/C(=O)NO)c4)C(=C)[C@@H]3C[C@H]12`, in assay [1], the negative logarithm of the Kd (pKd) was 4.91. Besides, the pIC50 on Histone deacetylase 1 is 6.69; on Histone deacetylase 3, 6.95; in assay [2], 7.20; on Histone deacetylase 2, 6.39; in the assay on A549, 5.34.

In the case of `C=C1C(=O)O[C@@H]2C[C@@]3(C)CC[C@@H](OC(=O)[C@@H](C)NC(=O)c4cccc(/C=C/C(=O)NO)c4)C(=C)[C@@H]3C[C@H]12`, the pKd in assay [1] was 4.87. The pIC50 at Histone deacetylase 1 is 6.70; on Histone deacetylase 3, 6.99; in assay [2], 7.06; at Histone deacetylase 2 it was 6.51; in the assay with A549, 5.36.

Regarding `C=C1C(=O)O[C@@H]2C[C@@]3(C)CC[C@@H](OC(=O)[C@H](CC)NC(=O)c4ccc(C(=O)Nc5ccccc5N)cc4)C(=C)[C@@H]3C[C@H]12`, the negative logarithm of the Kd (pKd) in assay [1] was 4.65. Moreover, the pIC50 on Histone deacetylase 1 was less than 6.00; at Histone deacetylase 3, less than 6.00; in assay [2] it was less than 6.00; on Histone deacetylase 2, less than 6.00; with A549, less than 5.00.

`C=C1C(=O)O[C@@H]2C[C@@]3(C)CC[C@@H](OC(=O)CNC(=O)c4ccc(C(=O)Nc5ccccc5N)cc4)C(=C)[C@@H]3C[C@H]12`: in assay [1], the pKd was 4.41. Also, the pIC50 on Histone deacetylase 1 was less than 6.00; at Histone deacetylase 3, less than 6.00; in assay [2] it was less than 6.00; at Histone deacetylase 2 it was less than 6.00; in the assay with A549, less than 5.00.

Regarding `C=C1C(=O)O[C@@H]2C[C@@]3(C)CC[C@@H](OC(=O)[C@H](C)NC(=O)c4ccc(C(=O)NO)cc4)C(=C)[C@@H]3C[C@H]12`, the pKd in assay [1] is less than 4.30. For the same molecule, the negative logarithm of the IC50 (pIC50) on Histone deacetylase 1 was 6.25; at Histone deacetylase 3, 6.36; in assay [2] it was 6.57; at Histone deacetylase 2, 6.07; in the assay on A549, less than 5.00.

As to `C=C1C(=O)O[C@@H]2C[C@@]3(C)CC[C@@H](OC(=O)[C@@H](CC(C)C)NC(=O)c4ccc(C(=O)Nc5ccccc5N)cc4)C(=C)[C@@H]3C[C@H]12`, the pKd in assay [1] is 5.16. Further, the pIC50 at Histone deacetylase 1 is 6.34; at Histone deacetylase 3, less than 6.00; in assay [2] it was less than 6.00; at Histone deacetylase 2, less than 6.00; in the assay on A549, 5.25.

In the case of `C=C1C(=O)O[C@@H]2C[C@@]3(C)CC[C@@H](OC(=O)[C@H](NC(=O)c4ccc(C(=O)Nc5ccccc5N)cc4)C(C)C)C(=C)[C@@H]3C[C@H]12`, in assay [1], the pKd is less than 4.30. Besides, the pIC50 is less than 6.00 on Histone deacetylase 1; less than 6.00 at Histone deacetylase 3; less than 6.00 in assay [2]; less than 6.00 on Histone deacetylase 2; less than 5.00 in the assay on A549.

Consider `C=C1C(=O)O[C@@H]2C[C@@]3(C)CC[C@@H](OC(=O)CNC(=O)c4cccc(/C=C/C(=O)NO)c4)C(=C)[C@@H]3C[C@H]12`, for which the pIC50 on Histone deacetylase 1 is 7.06; at Histone deacetylase 3 it was 7.20; in assay [2] it was 7.34; at Histone deacetylase 2, 7.03; with A549, 5.73.

With `C=C1C(=O)O[C@@H]2C[C@@]3(C)CC[C@@H](OC(=O)[C@@H](CC)NC(=O)c4ccc(C(=O)Nc5ccccc5N)cc4)C(=C)[C@@H]3C[C@H]12`, the pKd in assay [1] is 4.68. Also, the pIC50 is 5.19 on Histone deacetylase 1; less than 6.00 on Histone deacetylase 3; less than 6.00 in assay [2]; less than 6.00 on Histone deacetylase 2; 5.18 in the assay on A549.

As to `C=C1C(=O)O[C@@H]2C[C@@]3(C)CC[C@@H](OC(=O)[C@@H](Cc4ccccc4)NC(=O)c4ccc(C(=O)Nc5ccccc5N)cc4)C(=C)[C@@H]3C[C@H]12`, the pKd in assay [1] was 5.32. Moreover, the pIC50 is 6.21 at Histone deacetylase 1; less than 6.00 at Histone deacetylase 3; less than 6.00 in assay [2]; less than 6.00 at Histone deacetylase 2; 5.13 in the assay on A549.

For `C=C1C(=O)O[C@@H]2C[C@@]3(C)CC[C@@H](OC(=O)[C@@H](NC(=O)c4ccc(C(=O)Nc5ccccc5N)cc4)C(C)C)C(=C)[C@@H]3C[C@H]12`, the pKd in assay [1] is 4.76. The pIC50 was less than 6.00 on Histone deacetylase 1; less than 6.00 at Histone deacetylase 3; less than 6.00 in assay [2]; less than 6.00 at Histone deacetylase 2; less than 5.00 in the assay with A549.

`C=C1C(=O)O[C@@H]2C[C@@]3(C)CC[C@@H](OC(=O)CNC(=O)c4ccc(C(=O)NO)cc4)C(=C)[C@@H]3C[C@H]12`: in assay [1], the pKd was less than 4.30. The pIC50 is 6.70 at Histone deacetylase 1; 6.97 at Histone deacetylase 3; 7.06 in assay [2]; 6.72 on Histone deacetylase 2; 5.59 in the assay on A549.

`C=C1C(=O)O[C@@H]2C[C@@]3(C)CC[C@@H](OC(=O)[C@@H](C)NC(=O)c4ccc(C(=O)Nc5ccccc5N)cc4)C(=C)[C@@H]3C[C@H]12`: the pKd in assay [1] was 5.30. The pIC50 on Histone deacetylase 1 was 6.91; at Histone deacetylase 3, 6.33; in assay [2], less than 6.00; at Histone deacetylase 2, 6.29; in the assay with A549, 5.65.

`C=C1C(=O)O[C@@H]2C[C@@]3(C)CC[C@@H](OC(=O)[C@H](C)NC(=O)c4ccc(C(=O)Nc5ccccc5N)cc4)C(=C)[C@@H]3C[C@H]12`: in assay [1], the pKd was 5.05. Also, the pIC50 is less than 6.00 on Histone deacetylase 1; less than 6.00 on Histone deacetylase 3; less than 6.00 in assay [2]; less than 6.00 on Histone deacetylase 2; 5.48 with A549.

Broadly, the pKd is the Kd on a negative log10 scale, so that one unit is a factor of ten. One may read the pIC50 as the negative decadic logarithm of the IC50, by convention in mol/L.
